# Measured values published in US10851098B2, “Azole amides and amines as alpha v integrin inhibitors” (BRISTOL-MYERS SQUIBB COMPANY, priority 2016, dated 2020).
# pIC50: −log10 of the molar value.
# Target: T1, human αVβ6 (Homo sapiens, UniProt P06756+P18564)
# T1 construct: purchased R & D systems 3817-AV
# Experiment: human αVβ6 HTRF binding assay
# Procedure: All binding assays used the HTRF (homogeneous time resolved fluorescence) technology from Cisbio International, therefore all assays are described as HTRF binding assays. The assay results for the Examples are listed above together with the characterization data. The HTRF binding assays are established for the following integrins: human αVβ6, human αVβ1, human αVβ3, human αVβ5, and human αVβ8. All assays used the following assay buffer: 20 mM Tris, pH 7.4, 1 mM MgCl2, 1 mM MnCl2, 0.01% Tween 20, and 0.01% BSA. Alternatively, a SPA-based assay was used for evaluation of receptor binding.
# […]
# T1 sequence (P06756 31-992 limits assumed): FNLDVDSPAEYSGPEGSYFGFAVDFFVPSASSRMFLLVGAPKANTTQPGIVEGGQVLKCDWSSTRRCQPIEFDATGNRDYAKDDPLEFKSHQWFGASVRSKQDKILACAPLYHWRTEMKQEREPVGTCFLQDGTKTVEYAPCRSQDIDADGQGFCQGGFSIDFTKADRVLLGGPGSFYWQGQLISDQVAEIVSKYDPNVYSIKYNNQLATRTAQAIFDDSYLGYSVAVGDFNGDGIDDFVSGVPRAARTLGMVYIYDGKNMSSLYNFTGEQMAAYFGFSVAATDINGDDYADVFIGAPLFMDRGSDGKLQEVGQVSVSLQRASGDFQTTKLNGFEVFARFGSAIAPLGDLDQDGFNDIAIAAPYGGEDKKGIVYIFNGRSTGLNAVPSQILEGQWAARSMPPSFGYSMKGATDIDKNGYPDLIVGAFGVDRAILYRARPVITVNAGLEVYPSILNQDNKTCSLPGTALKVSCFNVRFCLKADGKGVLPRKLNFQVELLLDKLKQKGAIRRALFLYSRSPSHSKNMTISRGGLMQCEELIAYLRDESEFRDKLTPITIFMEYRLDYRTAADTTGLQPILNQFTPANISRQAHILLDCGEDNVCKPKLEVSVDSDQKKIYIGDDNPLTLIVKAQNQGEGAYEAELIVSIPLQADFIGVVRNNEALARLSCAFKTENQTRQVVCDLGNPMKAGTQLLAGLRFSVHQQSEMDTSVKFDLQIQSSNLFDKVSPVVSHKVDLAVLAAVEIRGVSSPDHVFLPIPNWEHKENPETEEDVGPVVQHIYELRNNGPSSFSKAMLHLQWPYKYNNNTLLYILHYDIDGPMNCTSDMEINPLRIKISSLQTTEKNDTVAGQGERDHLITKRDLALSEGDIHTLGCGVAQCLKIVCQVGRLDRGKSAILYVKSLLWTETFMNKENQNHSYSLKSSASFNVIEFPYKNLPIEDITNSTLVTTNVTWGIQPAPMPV
# T1 sequence (P18564 22-707 limits assumed): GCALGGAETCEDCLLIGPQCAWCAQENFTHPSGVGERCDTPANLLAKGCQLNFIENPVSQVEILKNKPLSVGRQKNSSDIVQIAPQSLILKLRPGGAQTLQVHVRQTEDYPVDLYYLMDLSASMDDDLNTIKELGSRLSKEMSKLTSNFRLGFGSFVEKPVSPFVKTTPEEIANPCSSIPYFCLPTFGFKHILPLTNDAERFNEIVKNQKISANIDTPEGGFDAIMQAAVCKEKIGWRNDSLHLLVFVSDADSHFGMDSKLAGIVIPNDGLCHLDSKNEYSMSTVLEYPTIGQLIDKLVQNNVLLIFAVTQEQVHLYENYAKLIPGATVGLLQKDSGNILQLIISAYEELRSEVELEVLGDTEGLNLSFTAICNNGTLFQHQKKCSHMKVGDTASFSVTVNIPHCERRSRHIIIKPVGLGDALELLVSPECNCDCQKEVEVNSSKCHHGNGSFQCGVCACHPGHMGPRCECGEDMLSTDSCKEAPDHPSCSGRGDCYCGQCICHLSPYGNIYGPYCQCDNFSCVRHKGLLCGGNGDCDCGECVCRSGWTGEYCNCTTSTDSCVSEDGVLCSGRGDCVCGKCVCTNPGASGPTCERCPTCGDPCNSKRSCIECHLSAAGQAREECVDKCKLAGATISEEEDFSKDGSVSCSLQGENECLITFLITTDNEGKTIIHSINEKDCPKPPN
row,pIC50,SMILES
1,6.46,"COc1ccc([C@H](CC(=O)O)NC(=O)c2cn(CCc3ccc4c(n3)NCCC4)nc2CO)cc1F [Example 2, (S)-3-(3-Fluoro-4-methoxyphenyl)-3-(3-(hydroxymethyl)-1-(2-(5,6,7,8-tetrahydro-1,8-naphthyridin-2-yl)ethyl)-1H-pyrazole-4-carboxamido)propanoic acid]"
2,6.51,CC(C)(C)OCc1nn(CCc2ccc3c(n2)NCCC3)cc1C(=O)NC(CC(=O)O)c1cc(Cl)cc(Cl)c1 (stereo not shown) [Example 3]
3,6.85,"O=C(O)CC(NC(=O)c1cn(CCc2ccc3c(n2)NCCC3)nc1CO)c1cc(Cl)cc(Cl)c1 (stereo not shown) [Example 4, 3-(3,5-Dichlorophenyl)-3-(3-(hydroxymethyl)-1-(2-(5,6,7,8-tetrahydro-1,8-naphthyridin-2-yl)ethyl)-1H-pyrazole-4-carboxamido)propanoic acid]"
4,6.75,"O=C(O)CC(NC(=O)c1cn(CCCc2ccc3c(n2)NCCC3)nc1CO)c1cc(Cl)cc(Cl)c1 (stereo not shown) [Example 6, 3-(3,5-Dichlorophenyl)-3-(3-(hydroxymethyl)-1-(3-(5,6,7,8-tetrahydro-1,8-naphthyridin-2-yl)propyl)-1H-pyrazole-4-carboxamido)propanoic acid]"
5,7.20,"O=C(O)C[C@H](NC(=O)c1cnn(CCCNc2ccccn2)c1)c1cc(Cl)cc(Cl)c1 [Example 7, (S)-3-(3,5-Dichlorophenyl)-3-(1-(3-(pyridin-2-ylamino)propyl)-1H-pyrazole-4-carboxamido)propanoic acid]"
6,7.39,"O=C(O)C[C@H](NC(=O)c1cnn(CCCNC2=NCCN2)c1)c1cc(Cl)cc(Cl)c1 [Example 8, (S)-3-(3,5-Dichlorophenyl)-3-(1-(3-((4,5-dihydro-1H-imidazol-2-yl)amino)propyl)-1H-pyrazole-4-carboxamido)propanoic acid]"
7,7.66,"O=C(O)CC(NC(=O)c1cnn(CCc2ccc3c(n2)NCCC3)c1CO)c1cccc(Cl)c1 (stereo not shown) [Example 9, 3-(3-Chlorophenyl)-3-(5-(hydroxymethyl)-1-(2-(5,6,7,8-tetrahydro-1,8-naphthyridin-2-yl)ethyl)-1H-pyrazole-4-carboxamido)propanoic acid]"
8,6.92,"N[C@@H](CNC(=O)c1cnn(CCc2ccc3c(n2)NCCC3)c1)C(=O)O [Example 11, (S)-2-Amino-3-(1-(2-(5,6,7,8-tetrahydro-1,8-naphthyridin-2-yl)ethyl)-1H-pyrazole-4-carboxamido)propanoic acid]"
9,8.15,"O=C(O)C[C@H](NC(=O)c1cnn(CCc2ccc3c(n2)NCCC3)n1)c1cc(Cl)cc(Cl)c1 [Example 13, (S)-3-(3,5-Dichlorophenyl)-3-(2-(2-(5,6,7,8-tetrahydro-1,8-naphthyridin-2-yl)ethyl)-2H-1,2,3-triazole-4-carboxamido)propanoic acid]"
10,5.66,"Cc1nc2c(cc1Cn1ncc(C(=O)N[C@@H](CC(=O)O)c3cc(Cl)cc(Cl)c3)n1)CCCN2 [Example 14, (S)-3-(3,5-Dichlorophenyl)-3-(2-((2-methyl-5,6,7,8-tetrahydro-1,8-naphthyridin-3-yl)methyl)-2H-1,2,3-triazole-4-carboxamido)propanoic acid]"
11,9.05,"Cc1cc(C)c(C(=O)N[C@@H](CNC(=O)c2cnn(CCc3ccc4c(n3)NCCC4)c2)C(=O)O)c(C)c1 [Example 15, (S)-3-(1-(2-(5,6,7,8-Tetrahydro-1,8-naphthyridin-2-yl)ethyl)-1H-pyrazole-4-carboxamido)-2-(2,4,6-trimethylbenzamido)propanoic acid]"
12,8.38,"O=C(O)C[C@H](NC(=O)c1cnn(CCc2ccc3c(n2)NCCC3)c1)c1cc(Cl)cc(Cl)c1 [Example 16, (S)-3-(3,5-Dichlorophenyl)-3-(1-(2-(5,6,7,8-tetrahydro-1,8-naphthyridin-2-yl)ethyl)-1H-pyrazole-4-carboxamido)propanoic acid]"
13,6.44,"CCN(C(=O)c1cnn(CCc2ccc3c(n2)NCCC3)c1)C(CC(=O)O)c1ccc(OC)nc1 (stereo not shown) [Example 17, 3-(N-Ethyl-1-(2-(5,6,7,8-tetrahydro-1,8-naphthyridin-2-yl)ethyl)-1H-pyrazole-4-carboxamido)-3-(6-methoxypyridin-3-yl)propanoic acid]"
14,7.89,COc1ccc([C@H](CC(=O)O)N(C)C(=O)c2cnn(CCc3ccc4c(n3)NCCC4)c2)cc1F [Example 18]
15,8.89,"COc1ccc(S(=O)(=O)N[C@@H](CNC(=O)c2cnn(CCc3ccc4c(n3)NCCC4)c2)C(=O)O)cc1 [Example 19, (S)-2-((4-Methoxyphenyl)sulfonamido)-3-(1-(2-(5,6,7,8-tetrahydro-1,8-naphthyridin-2-yl)ethyl)-1H-pyrazole-4-carboxamido)propanoic acid]"
16,8.85,O=C(NC[C@@H](NC(=O)[C@@H]1CCCN1S(=O)(=O)c1ccccc1)C(=O)O)c1cnn(CCc2ccc3c(n2)NCCC3)c1 [Example 21]
17,8.72,CC(C)(C)c1cc(Br)cc([C@H](CC(=O)O)NC(=O)c2cnn(CCc3ccc4c(n3)NCCC4)c2)c1 [Example 22]
18,8.64,Cc1ccc(Oc2cccc(C(CC(=O)O)NC(=O)c3cnn(CCc4ccc5c(n4)NCCC5)c3COC(C)(C)C)c2)cc1 (stereo not shown) [Example 23]
19,8.51,O=C(O)CC(NC(=O)c1cnn(CCc2ccc3c(n2)NCCC3)c1)c1ccc(Cl)c(C(F)(F)F)c1 (stereo not shown) [Example 24]
20,8.51,CN(C(=O)c1cnn(CCc2ccc3c(n2)NCCC3)c1)[C@@H](CC(=O)O)c1cc(Cl)cc(Cl)c1 [Example 25]
21,8.30,CC(C)(C)c1cc(Br)cc([C@H](CC(=O)O)NC(=O)c2cnn(CCc3ccc4c(n3)NCCC4)c2CO)c1 [Example 26]
22,8.29,Cc1ccc(Oc2cccc(C(CC(=O)O)NC(=O)c3cnn(CCc4ccc5c(n4)NCCC5)c3CO)c2)cc1 (stereo not shown) [Example 27]
23,8.21,Cc1cc(C)c(S(=O)(=O)N[C@H](CNC(=O)c2cnn(CCCc3ccc4c(n3)NCCC4)c2)C(=O)O)c(C)c1 [Example 28]
24,8.19,O=C(O)C[C@H](NC(=O)c1cnn(CCc2ccc3c(n2)NCCC3)c1CO)c1cc(Cl)cc(Cl)c1 [Example 29]
25,8.14,O=C(O)CC(NC(=O)c1cnn(CCc2ccc3c(n2)NCCC3)c1)c1cc(Cl)cc(Cl)c1 (stereo not shown) [Example 30]
26,8.12,CN(C(=O)c1cnn(CCc2ccc3c(n2)NCCC3)c1)C(CC(=O)O)c1cc(Cl)cc(Cl)c1 (stereo not shown) [Example 32]
27,8.03,COc1ccc([C@H](CC(=O)O)NC(=O)c2cnn(CCc3ccc4c(n3)NCCC4)c2CO)cc1F [Example 33]
28,8.00,CC(C)(C)OCc1c(C(=O)NC(CC(=O)O)c2cccc(-n3cccc3)c2)cnn1CCc1ccc2c(n1)NCCC2 (stereo not shown) [Example 34]
29,8.00,O=C(O)CC(NC(=O)c1cnn(CCc2ccc3c(n2)NCCC3)c1CO)c1ccc(Cl)c(C(F)(F)F)c1 (stereo not shown) [Example 35]

row,SMILES,pIC50
1,"COc1ccc([C@H](CC(=O)O)NC(=O)c2cn(CCc3ccc4c(n3)NCCC4)nc2COC(C)(C)C)cc1F [Example 1, (S)-3-(3-(tert-Butoxymethyl)-1-(2-(5,6,7,8-tetrahydro-1,8-naphthyridin-2-yl)ethyl)-1H-pyrazole-4-carboxamido)-3-(3-fluoro-4-methoxyphenyl)propanoic acid]",6.11
2,"CC(C)(C)OCc1nn(CCCc2ccc3c(n2)NCCC3)cc1C(=O)NC(CC(=O)O)c1cc(Cl)cc(Cl)c1 (stereo not shown) [Example 5, 3-(3-(tert-Butoxymethyl)-1-(3-(5,6,7,8-tetrahydro-1,8-naphthyridin-2-yl)propyl)-1H-pyrazole-4-carboxamido)-3-(3,5-dichlorophenyl)propanoic acid]",6.80
